Assay results reported in ChEMBL document CHEMBL1158788, “Cytotoxic constituents of the fruit body of Daedalea dickisii” (J Nat Prod, 2005).
pIC50: −log10 of the molar value. The source made the active and inactive calls. The rule behind the calls is not given here.

Key:
Format in all cases: functional, cell-based
HL-60 [1] = test: Cytotoxicity against human HL60 cells after 24 hrs by MTT assay; settings: HL-60, 24 h
HCT-15 = test: Cytotoxicity against human HCT15 cells after 48 hrs by MTT assay; settings: HCT-15, 48 h
HL-60 [2] = test: Induction of apoptosis in human HL60 cells assessed as DNA fragmentation at 35 uM after 8 hrs

SMILES	pIC50 (HL-60 [1])	pIC50 (HCT-15)	Activity (HL-60 [2])
CC(C(=O)O)[C@@H](C)C(=O)C[C@@H](C)[C@H]1CC[C@@]2(C)C3=C(CC[C@]12C)[C@@]1(C)CC[C@@H](OC(=O)CC(=O)O)C(C)(C)[C@@H]1CC3 (some centres not stated) [CARBOXYACETYLQUERCINIC ACID]	4.34	3.81	–
C=C(CC[C@@H](C(=O)O[C@@H]1O[C@H](COC(C)=O)[C@@H](O)[C@H](O)[C@H]1O)[C@H]1[C@H](OC(C)=O)C[C@@]2(C)C3=C(CC[C@]12C)[C@@]1(C)CCC(=O)C(C)(C)[C@@H]1CC3)C(C)C [DAEDALEASIDE E]	4.82	–	Active
C=C(CC[C@@H](C(=O)O[C@@H]1O[C@H](CO)[C@@H](O)[C@H](O)[C@H]1O)[C@H]1[C@H](OC(C)=O)C[C@@]2(C)C3=C(CC[C@]12C)[C@@]1(C)CCC(=O)C(C)(C)[C@@H]1CC3)C(C)C [DAEDALEASIDE D]	4.85	4.22	Active
C=C(CC[C@@H](C(=O)O)[C@H]1[C@H](O)C[C@@]2(C)c3ccc(C)c(CCC(=O)C(C)C)c3CC[C@]12C)C(C)C [DAEDALEANIC ACID A]	4.44	3.69	–
C=C(CC[C@@H](C(=O)O[C@@H]1O[C@H](CO)[C@@H](O)[C@H](O)[C@H]1O)[C@H]1[C@H](OC(C)=O)C[C@@]2(C)C3=CC[C@H]4C(C)(C)C(=O)CC[C@]4(C)C3=CC[C@]12C)C(C)C [DAEDALEASIDE B]	5.03	4.26	Active
C=C(CC[C@@H](C(=O)O[C@@H]1O[C@H](CO)[C@@H](O)[C@H](O)[C@H]1O)[C@H]1[C@H](OC(C)=O)C[C@@]2(C)c3ccc(C)c(CCC(=O)C(C)C)c3CC[C@]12C)C(C)C [DAEDALEASIDES A]	4.55	4.49	–
COc1cc([C@@H]2c3cc4c(cc3[C@@H](O[C@@H]3O[C@@H]5CO[C@@H](C)O[C@H]5[C@H](O)[C@H]3O)[C@H]3COC(=O)[C@H]23)OCO4)cc(OC)c1O [ETOPOSIDE]	4.60	–	–
C=C(CC[C@@H](C(=O)O[C@@H]1O[C@H](COC(C)=O)[C@@H](O)[C@H](O)[C@H]1O)[C@H]1[C@H](OC(C)=O)C[C@@]2(C)C3=CC[C@H]4C(C)(C)C(=O)CC[C@]4(C)C3=CC[C@]12C)C(C)C [DAEDALEASIDE C]	4.92	–	Active
